Assay results published in patent US4163784A, “Heterocyclylcarbonyl derivatives of urea, agents for dissolution of gallstones” (Pfizer Inc., priority 1978, dated 1979).

Legend:
[1] = tested on: male CD-1 mice; experiment: acute toxicity, single intraperitoneal dose; format: in vivo; details: 1000 mg./kg. single i.p. dose, 0.6% Tween 20, 10 mice per group, observed one week
Procedure: The compounds were tested for acute toxicity in the following manner. Healthy male CD-1 mice (20-25 g.), 10 mice per group, received a single high dose of drug by intraperitoneal administration (1000 mg./kg., in 0.6% Tween 20, at a concentration of 70 mg./ml.). (Tween 20, polyoxyethylene sorbitan monolaurate, available from Atlas Chemical Industries, Inc.). The animals were observed continuously for at least two hours, again at 24 hours and daily thereafter for one week. Controls received vehicle alone, […]. and were asymptomatic throughout. The compounds tested and the widely varying mortality rates observed are tabulated below.

[2] = tested on: male CD-1 mice; experiment: seven-day chronic toxicity test (hepatotoxicity); format: in vivo; details: 500 mg./kg. daily orally in 0.1% methyl cellulose for 5 days
[3] = tested on: dogs; experiment: oral administration at high dose to dogs, toxicity; format: in vivo; details: 250 mg./kg.
[4] = tested on: rats; experiment: oral administration at high dose to rats, toxicity; format: in vivo; details: same high dose as dogs (250 mg./kg.)
[5] = tested on: pathogenic cholelithiasis process; details: in man; cited from earlier work

Structure (SMILES) | Mortality Rate [1] | hepatotoxicity [2] | other results
O=C(NCc1ccccc1)NC(=O)c1cccnc1Cl [2-chloro-N-(benzylaminocarbonyl)nicotinamide] | 0/10 | no hepatotoxicity | –
O=C(NC(=O)N1CC=CCC1)c1cccnc1 [3-pyridyl, 1-(1,2,3,6-tetrahydropyridyl)] | 9/10 | – | –
CCCCN(CCCC)C(=O)NC(=O)c1cccnc1 [3-pyridyl, N-(n-C 4 H9)2] | 10/10 | – | –
CCCCN(CCCC)C(=O)NC(=O)c1cncs1 [5-thiazolyl, N-(n-C 4 H9)2] | 4/10 | – | –
O=C(NC(=O)N1CC=CCC1)c1ccc(Cl)nc1 [6-Chloro-N-[1-(1,2,3,6-tetrahydropyridyl)carbonyl]nicotinamide] | 0/10 | produced hepatotoxicity | pathological signs in dogs [3]: pathological signs suggestive of cardiac impairment; toxic effects in dogs: death ([3]; ten times the projected efficacious dose): death of the dogs; toxicological symptoms in rats [4]: only moderate toxicological symptoms, including lethargy, diminished appetite and weight gain, and slight abnormalities in clinical chemistry
C[C@H](CCC(=O)O)[C@H]1CC[C@H]2[C@@H]3[C@H](O)C[C@@H]4C[C@H](O)CC[C@]4(C)[C@H]3CC[C@]12C [chenodeoxycholic acid] | – | – | prevention and reversal of the pathogenic cholelithiasis process [5]: prevention and even reversal of the pathogenic cholelithiasis process in man
